Laboratory results as given in the supplement of paper PMC11451515.

Tested on: NOMO1
Assay: cell viability relative to DMSO control; higher = less cytotoxic
Details: 48 h
Outline: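 Leukemia cells (NOMO1 or SEM, 500 cells/well; P12-Ichikawa, 1000 cells/well) were seeded in 5 μl in 1536-well plates after at least four passages of adaptation to each medium. They received library compounds in DMSO by pin dosing, 11 threefold points from 47 μM to 0.79 nM. Luminescence with CellTiter-Glo One was read after 48 h at 37°C. Viability is stated per plate relative to DMSO wells, with cell-free wells as background.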

[1] = HPLM + 10% dialyzed FBS, 0.000781 µM
[2] = HPLM + 10% dialyzed FBS, 0.00234 µM
[3] = HPLM + 10% dialyzed FBS, 0.00702 µM
[4] = HPLM + 10% dialyzed FBS, 0.0211 µM
[5] = HPLM + 10% dialyzed FBS, 0.0632 µM
[6] = HPLM + 10% dialyzed FBS, 0.19 µM
[7] = HPLM + 10% dialyzed FBS, 0.569 µM
[8] = HPLM + 10% dialyzed FBS, 1.71 µM
[9] = HPLM + 10% dialyzed FBS, 5.12 µM
[10] = HPLM + 10% dialyzed FBS, 15.4 µM
[11] = HPLM + 10% dialyzed FBS, 46.1 µM
[12] = RPMI 5 mM glucose + 10% FBS, 0.000781 µM
[13] = RPMI 5 mM glucose + 10% FBS, 0.00234 µM
[14] = RPMI 5 mM glucose + 10% FBS, 0.00702 µM
[15] = RPMI 5 mM glucose + 10% FBS, 0.0211 µM
[16] = RPMI 5 mM glucose + 10% FBS, 0.0632 µM
[17] = RPMI 5 mM glucose + 10% FBS, 0.19 µM
[18] = RPMI 5 mM glucose + 10% FBS, 0.569 µM
[19] = RPMI 5 mM glucose + 10% FBS, 1.71 µM
[20] = RPMI 5 mM glucose + 10% FBS, 5.12 µM
[21] = RPMI 5 mM glucose + 10% FBS, 15.4 µM
[22] = RPMI 5 mM glucose + 10% FBS, 46.1 µM
[23] = RPMI 5 mM glucose + 10% dialyzed FBS, 0.000781 µM
[24] = RPMI 5 mM glucose + 10% dialyzed FBS, 0.00234 µM
[25] = RPMI 5 mM glucose + 10% dialyzed FBS, 0.00702 µM
[26] = RPMI 5 mM glucose + 10% dialyzed FBS, 0.0211 µM
[27] = RPMI 5 mM glucose + 10% dialyzed FBS, 0.0632 µM
[28] = RPMI 5 mM glucose + 10% dialyzed FBS, 0.19 µM
[29] = RPMI 5 mM glucose + 10% dialyzed FBS, 0.569 µM
[30] = RPMI 5 mM glucose + 10% dialyzed FBS, 1.71 µM
[31] = RPMI 5 mM glucose + 10% dialyzed FBS, 5.12 µM
[32] = RPMI 5 mM glucose + 10% dialyzed FBS, 15.4 µM
[33] = RPMI 5 mM glucose + 10% dialyzed FBS, 46.1 µM

Compound	cell viability [1] [%]	cell viability [2] [%]	cell viability [3] [%]	cell viability [4] [%]	cell viability [5] [%]	cell viability [6] [%]	cell viability [7] [%]	cell viability [8] [%]	cell viability [9] [%]	cell viability [10] [%]	cell viability [11] [%]	cell viability [12] [%]	cell viability [13] [%]	cell viability [14] [%]	cell viability [15] [%]	cell viability [16] [%]	cell viability [17] [%]	cell viability [18] [%]	cell viability [19] [%]	cell viability [20] [%]	cell viability [21] [%]	cell viability [22] [%]	cell viability [23] [%]	cell viability [24] [%]	cell viability [25] [%]	cell viability [26] [%]	cell viability [27] [%]	cell viability [28] [%]	cell viability [29] [%]	cell viability [30] [%]	cell viability [31] [%]	cell viability [32] [%]	cell viability [33] [%]
COC1=CC=CC(=C1/C2=N/CC3=C(N=C(NC4=CC(=C(C=C4)C(O)=O)OC)N=C3)C5=CC=C(Cl)C=C25)F	78.5	88.3	78.9	88.2	76.3	38.6	53.4	48.3	58.6	62	51.6	70.8	80.6	77.2	84	71.4	28.4	48.8	46.5	49.8	53.6	61.8	82.2	77.5	72.9	82.2	63.7	51.9	49.4	48.2	49	50.5	61
CCCCCCCN(CC)CCCC(O)c1ccc(NS(C)(=O)=O)cc1.CCCCCCCN(CC)CCCC(O)c1ccc(NS(C)(=O)=O)cc1.O=C(O)/C=C/C(=O)O (stereo unspecified)	117	112	126	126	114	126	127	108	122	112	102	94.3	108	105	99.8	107	106	97.1	107	101	107	110	110	114	107	100	99.9	124	103	109	114	112	90.3
CC[P](CC)(CC)=[Au][S][C@@H]1O[C@H](COC(C)=O)[C@@H](OC(C)=O)[C@H](OC(C)=O)[C@H]1OC(C)=O	118	121	119	109	120	105	115	55.6	9.31	3.26	2.08	99.7	115	105	109	116	87	90.4	26.9	6.9	2.16	1.83	95	125	111	125	102	114	108	48.9	11.6	3.14	1.73
N#C[C@@H]1C[C@@H]2C[C@@H]2N1C(=O)[C@@H](N)C12CC3CC(CC(O)(C3)C1)C2	139	118	124	134	129	129	127	106	96.6	32.2	5.88	120	109	118	124	109	116	111	110	113	112	67.3	122	125	106	125	131	123	132	122	118	97.9	44.6
CNC(=O)c1cc(COc2nnc(Nc3ccc(Cl)cc3)c3ccoc23)ccn1	110	110	107	103	114	131	114	107	98.2	91.1	65.7	114	123	106	112	110	111	109	104	92.6	87.4	87.5	104	111	107	101	109	102	92.7	96.4	98.6	101	87.3
CN1CCC(=C2c3ccccc3CCc3sccc32)CC1	88.8	107	111	101	126	118	103	104	121	103	44.5	106	109	104	106	125	105	114	107	102	108	109	100	108	113	112	112	110	116	108	106	106	65.7
Cc1ccc(C)c(OCCCC(C)(C)C(=O)O)c1	92.3	84.2	93	95.6	89.9	102	105	88.4	98.9	104	98.3	78.1	93.7	101	94.1	85.5	105	99.4	88.7	92.1	96.5	92.9	76.5	92	88.9	94.1	96.1	103	101	81.3	88.3	106	96.2
